Data as given in publication PMC11318023, “Discovery of VU6008677: A Structurally Distinct Tricyclic M4 Positive Allosteric Modulator with Improved CYP450 Profile” (ACS Medicinal Chemistry Letters, 2024).
Where two headings read alike, the source gives them in different places.

Key:
[1] = set-up: method as in PMID 18772318, PMID 24442096, PMID 34710625; details: rat brain; Figure 1, earlier M4 PAMs; cited from earlier work
[2] = set-up: method as in PMID 18772318, PMID 24442096, PMID 34710625; details: rat; Figure 1, earlier M4 PAMs; cited from earlier work
[3] = set-up: method as in PMID 18772318, PMID 24442096, PMID 34710625; details: Figure 1, earlier M4 PAMs; cited from earlier work
[4] = set-up: method as in PMID 18772318, PMID 24442096, PMID 34710625; details: human; Figure 1, earlier M4 PAMs; cited from earlier work
[5] = Binding in plasma from rat, equilibrium dialysis; type: in vitro ADME; details: read-out: rat fu,plasma
CYP 2D6 [6] = molecular target: T1, CYP 2D6 (Homo sapiens, UniProt P10635); test: CYP450 inhibition in pooled human liver microsomes, CYP-specific probe substrates; type: in vitro ADME; details: pooled HLM, NADPH, CYP-specific probe substrate
T1 sequence (P10635 whole entry): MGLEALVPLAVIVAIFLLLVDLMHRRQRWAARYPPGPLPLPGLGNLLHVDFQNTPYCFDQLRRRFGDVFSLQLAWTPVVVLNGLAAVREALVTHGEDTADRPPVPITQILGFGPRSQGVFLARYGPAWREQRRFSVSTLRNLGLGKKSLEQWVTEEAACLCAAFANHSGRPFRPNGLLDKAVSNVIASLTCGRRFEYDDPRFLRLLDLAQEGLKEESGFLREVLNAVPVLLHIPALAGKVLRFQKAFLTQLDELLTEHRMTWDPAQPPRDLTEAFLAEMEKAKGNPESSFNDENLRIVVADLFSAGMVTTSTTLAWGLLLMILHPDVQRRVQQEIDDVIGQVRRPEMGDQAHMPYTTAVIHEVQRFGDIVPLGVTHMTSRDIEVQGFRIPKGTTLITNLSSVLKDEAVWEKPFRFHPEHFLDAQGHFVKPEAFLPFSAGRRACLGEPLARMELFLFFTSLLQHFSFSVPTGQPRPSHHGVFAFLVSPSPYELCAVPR

[7] = Binding in plasma from human, equilibrium dialysis; type: in vitro ADME; details: human, plasma, read-out: human fu,plasma
[8] = Binding in brain homogenate from rat, equilibrium dialysis; type: in vitro ADME; details: rat, brain homogenate, rat brain homogenates, read-out: rat fu,brain
human M4 (hM4) = molecular target: T2, human M4 (hM4) (Homo sapiens, UniProt P08173); test: Calcium mobilization assay, hM4/Gqi5-CHO cells, with EC20 acetylcholine (PAM); details: hM4/Gqi5-CHO cells, calcium mobilization; for hM4 pEC50 / hM4 %ACh Max: EC20 acetylcholine; for hM4 %ACh Max: maximum response; for EC50: read-out: hM4 EC50, EC20 fixed concentration of acetylcholine
T2 sequence (P08173 1-479): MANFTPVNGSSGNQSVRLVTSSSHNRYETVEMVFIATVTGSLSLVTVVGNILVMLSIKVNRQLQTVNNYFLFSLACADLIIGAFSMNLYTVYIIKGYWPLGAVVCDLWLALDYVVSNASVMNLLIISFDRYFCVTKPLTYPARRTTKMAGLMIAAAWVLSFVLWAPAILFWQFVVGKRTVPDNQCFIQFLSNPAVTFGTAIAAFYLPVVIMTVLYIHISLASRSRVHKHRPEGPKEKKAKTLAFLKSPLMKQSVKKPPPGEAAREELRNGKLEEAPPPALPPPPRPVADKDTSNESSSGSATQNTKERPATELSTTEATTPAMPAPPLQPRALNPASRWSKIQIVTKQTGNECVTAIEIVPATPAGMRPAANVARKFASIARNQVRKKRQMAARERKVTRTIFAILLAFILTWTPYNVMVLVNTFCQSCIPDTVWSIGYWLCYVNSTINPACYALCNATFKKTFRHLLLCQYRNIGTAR

CYP 2C9 [9] = molecular target: T3, CYP 2C9 (Homo sapiens, UniProt P11712); test: CYP450 inhibition in pooled human liver microsomes, CYP-specific probe substrates; type: in vitro ADME; details: pooled HLM, NADPH, CYP-specific probe substrate
T3 sequence (P11712 whole entry): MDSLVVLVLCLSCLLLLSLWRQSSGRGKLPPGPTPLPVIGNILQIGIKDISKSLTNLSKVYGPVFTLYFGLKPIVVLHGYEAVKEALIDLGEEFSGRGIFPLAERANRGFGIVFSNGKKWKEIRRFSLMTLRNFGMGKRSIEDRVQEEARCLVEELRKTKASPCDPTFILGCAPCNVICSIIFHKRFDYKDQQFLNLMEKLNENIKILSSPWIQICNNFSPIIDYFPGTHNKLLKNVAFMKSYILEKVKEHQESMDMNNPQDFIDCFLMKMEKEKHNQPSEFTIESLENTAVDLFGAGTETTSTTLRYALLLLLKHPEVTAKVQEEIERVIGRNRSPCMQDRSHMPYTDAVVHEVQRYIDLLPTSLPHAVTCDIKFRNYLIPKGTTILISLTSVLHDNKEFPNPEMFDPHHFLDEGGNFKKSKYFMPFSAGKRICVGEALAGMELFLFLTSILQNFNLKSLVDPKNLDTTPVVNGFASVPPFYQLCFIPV

CYP 3A4 = CYP 3A4 (Homo sapiens, UniProt P08684); test: as above; type: in vitro ADME; details: pooled HLM, NADPH, CYP-specific probe substrate
Sequence of CYP 3A4 (P08684 whole entry): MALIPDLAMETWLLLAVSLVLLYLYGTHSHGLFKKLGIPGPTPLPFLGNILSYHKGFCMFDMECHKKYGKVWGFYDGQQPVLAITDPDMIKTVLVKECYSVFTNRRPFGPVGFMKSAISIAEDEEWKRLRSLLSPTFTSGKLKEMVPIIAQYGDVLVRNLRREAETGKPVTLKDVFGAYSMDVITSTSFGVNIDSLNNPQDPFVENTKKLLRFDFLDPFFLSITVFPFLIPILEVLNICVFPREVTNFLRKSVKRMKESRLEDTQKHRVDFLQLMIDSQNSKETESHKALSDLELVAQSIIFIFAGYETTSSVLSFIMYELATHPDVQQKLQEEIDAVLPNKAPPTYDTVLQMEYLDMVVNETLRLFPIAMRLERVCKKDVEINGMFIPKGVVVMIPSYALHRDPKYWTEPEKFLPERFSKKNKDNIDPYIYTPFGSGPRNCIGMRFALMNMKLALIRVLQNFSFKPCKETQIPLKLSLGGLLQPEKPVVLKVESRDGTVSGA

[10] = Intrinsic clearance in rat liver microsomes (substrate depletion), predicted hepatic clearance; type: in vitro ADME; details: for CLint scaled at 1 µM: pH 7.4, rat liver microsomes; for CLhep, rat (predicted hepatic clearance): predicted from rat microsomal CLint
human M2 (hM2) = molecular target: T4, human M2 (hM2) (Homo sapiens, UniProt P08172); test: Calcium mobilization assay, hM2/Gqi5-CHO cells, with EC20 acetylcholine; type: cell-based
T4 construct: expressed in transfected cells
T4 sequence (P08172 1-466): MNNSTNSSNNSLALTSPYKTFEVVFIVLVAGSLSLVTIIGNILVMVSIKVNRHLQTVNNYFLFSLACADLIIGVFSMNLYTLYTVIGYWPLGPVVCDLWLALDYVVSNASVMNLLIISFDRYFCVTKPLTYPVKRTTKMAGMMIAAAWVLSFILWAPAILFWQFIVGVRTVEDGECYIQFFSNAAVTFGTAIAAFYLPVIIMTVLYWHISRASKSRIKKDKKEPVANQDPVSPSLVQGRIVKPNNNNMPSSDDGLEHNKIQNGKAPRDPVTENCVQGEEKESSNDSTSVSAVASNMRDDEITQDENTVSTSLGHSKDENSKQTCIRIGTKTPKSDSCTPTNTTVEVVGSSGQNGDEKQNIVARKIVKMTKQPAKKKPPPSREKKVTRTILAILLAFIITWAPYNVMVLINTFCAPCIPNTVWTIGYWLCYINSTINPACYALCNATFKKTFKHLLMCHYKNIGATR
From the text: buffer remained in the cell plates. […] After establishment of a […]

CYP 1A2 [11] = molecular target: T5, CYP 1A2 (Homo sapiens, UniProt P05177); test: CYP450 inhibition in pooled human liver microsomes, CYP-specific probe substrates; type: in vitro ADME; details: pooled HLM, NADPH, CYP-specific probe substrate
T5 sequence (P05177 1-516): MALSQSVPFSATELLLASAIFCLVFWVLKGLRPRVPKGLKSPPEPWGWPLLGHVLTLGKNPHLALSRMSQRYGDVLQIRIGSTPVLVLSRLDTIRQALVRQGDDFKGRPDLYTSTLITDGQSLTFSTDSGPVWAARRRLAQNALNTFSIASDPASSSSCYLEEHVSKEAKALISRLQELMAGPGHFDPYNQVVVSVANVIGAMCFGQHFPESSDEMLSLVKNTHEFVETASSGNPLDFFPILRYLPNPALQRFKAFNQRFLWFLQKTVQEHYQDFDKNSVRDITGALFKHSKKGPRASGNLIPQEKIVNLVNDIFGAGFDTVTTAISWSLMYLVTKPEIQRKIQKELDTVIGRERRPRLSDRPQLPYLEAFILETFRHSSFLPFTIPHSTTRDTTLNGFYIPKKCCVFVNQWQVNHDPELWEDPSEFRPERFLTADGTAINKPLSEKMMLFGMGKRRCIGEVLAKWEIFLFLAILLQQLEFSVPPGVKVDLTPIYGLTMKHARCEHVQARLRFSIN

[12] = Intrinsic clearance in human liver microsomes (substrate depletion), predicted hepatic clearance; type: in vitro ADME; details: for CLint scaled at 1 µM: pH 7.4, human liver microsomes; for CLhep, human (predicted hepatic clearance): predicted from human microsomal CLint
CYP 2C9 [13] = molecular target: T3, CYP 2C9; set-up: method as in PMID 23177787; details: Figure 1; read-out: Cyp P450 Inhibition (2C9); cited from earlier work
CYP 2D6 [14] = molecular target: T1, CYP 2D6; set-up: method as in PMID 23177787; details: Figure 1; read-out: Cyp P450 Inhibition (2D6); cited from earlier work
CYP 1A2 [15] = molecular target: T5, CYP 1A2; set-up: method as in PMID 23177787; details: Figure 1; read-out: Cyp P450 Inhibition (1A2); cited from earlier work

SMILES	fu,b (r) [1]	fu,plasma (r) [2]	rat CLhep [3] [L/h/kg]	fraction unbound at 6 h, 5 µM [5]	IC50 (CYP 2D6 [6]) [µM]	fraction unbound at 6 h, 5 µM [7]	fraction unbound at 6 h, 1 µM [8]	hM4 pEC50 (human M4 (hM4))	hM4 %ACh Max (human M4 (hM4)) [%]	EC50 (human M4 (hM4)) [µM]	IC50 (CYP 2C9 [9]) [µM]	IC50 (CYP 3A4) [µM]	CLint scaled at 1 µM [10] [L/h/kg]	CLhep, rat (predicted hepatic clearance) [10] [L/h/kg]	IC50 (CYP 1A2 [11]) [µM]	CLint scaled at 1 µM [12] [L/h/kg]	CLhep, human (predicted hepatic clearance) [12] [L/h/kg]	other results
Cc1cc(C)c2c(n1)sc1c(N3CC4(COC4)C3)ncnc12 [VU6007215]	0.019	0.206	3.78															fu,plasma (h) [4]: 0.056
Cc1c(Cl)cnc2sc3c(NC4CC4)ncnc3c12 [Compound 15g]				0.039	> 30	0.01	0.003	7.60	110	0.025	> 30	24.3	47.3	3.84	< 0.1	3.42	0.9	EC50 (human M2 (hM2)): 0.48 µM; hM2 % ACh Max (human M2 (hM2)): 40%
Cc1nc2sc(C(=O)NCc3ccncc3)c(N)c2c(C)c1Cl [ML253]																		IC50 (CYP 2C9 [13]): < 0.1 µM; IC50 (CYP 2D6 [14]): 0.7 µM; IC50 (CYP 1A2 [15]): 0.12 µM
COc1ccc(CNC(=O)c2sc3nc(C)cc(C)c3c2N)cc1 [VU0152100]	0.045	0.011	3.9															
Cc1nc2sc3c(NC4CC4)nncc3c2c(C)c1Cl.Cl [Compound 22i]				0.042	7.9	0.013	0.011	7.19	88	0.065	19.2	28.8	25.2	3.6	< 0.1	3.12	0.9	hM2 EC50 (human M2 (hM2)): inactive
